One experiment has as its target T1, Epac1-BRET sensor CAMYEL (Homo sapiens, UniProt O95398, F824A/T823A).
T1 construct: made in house; host or cells: Prokaryotic expression vector pQE30-CAMYEL; used as cell extract
T1 sequence (O95398 191-923 T823A/F824A limits assumed): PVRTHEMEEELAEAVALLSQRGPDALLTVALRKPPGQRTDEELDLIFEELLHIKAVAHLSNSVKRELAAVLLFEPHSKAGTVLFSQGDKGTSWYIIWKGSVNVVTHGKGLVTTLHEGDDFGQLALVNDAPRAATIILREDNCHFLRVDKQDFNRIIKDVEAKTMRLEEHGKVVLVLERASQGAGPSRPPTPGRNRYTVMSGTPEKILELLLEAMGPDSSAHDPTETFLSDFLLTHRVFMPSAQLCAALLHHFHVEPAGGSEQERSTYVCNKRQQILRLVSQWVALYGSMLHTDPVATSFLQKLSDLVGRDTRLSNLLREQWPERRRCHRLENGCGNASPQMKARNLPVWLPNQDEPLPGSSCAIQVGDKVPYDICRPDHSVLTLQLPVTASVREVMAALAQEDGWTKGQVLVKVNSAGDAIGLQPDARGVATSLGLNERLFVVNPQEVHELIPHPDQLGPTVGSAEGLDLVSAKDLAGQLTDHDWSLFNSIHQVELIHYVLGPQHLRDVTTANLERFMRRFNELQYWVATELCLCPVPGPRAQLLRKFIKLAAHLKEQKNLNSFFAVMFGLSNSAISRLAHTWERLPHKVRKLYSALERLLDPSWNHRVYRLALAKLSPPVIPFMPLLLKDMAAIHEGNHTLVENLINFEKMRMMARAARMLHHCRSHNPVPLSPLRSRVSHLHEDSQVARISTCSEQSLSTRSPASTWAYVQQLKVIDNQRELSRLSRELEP
Description: CAMYEL Epac1-BRET sensor assay (cAMP-induced conformational change). The class given is biochemical. Conditions: for inhibitory activity on Epac1 activation, structure-activity comments: CAMYEL assay, compared with AM-001; for remaining activity at 20 µM: read-out: BRET ratio variation (% of 100 μM cAMP alone). On the technique in general: Bioluminescence resonance energy transfer reports proximity on the nanometre scale.

Experiment [1] concerns the target T2, Epac1 (Homo sapiens, UniProt O95398).
T2 sequence (O95398 1-923): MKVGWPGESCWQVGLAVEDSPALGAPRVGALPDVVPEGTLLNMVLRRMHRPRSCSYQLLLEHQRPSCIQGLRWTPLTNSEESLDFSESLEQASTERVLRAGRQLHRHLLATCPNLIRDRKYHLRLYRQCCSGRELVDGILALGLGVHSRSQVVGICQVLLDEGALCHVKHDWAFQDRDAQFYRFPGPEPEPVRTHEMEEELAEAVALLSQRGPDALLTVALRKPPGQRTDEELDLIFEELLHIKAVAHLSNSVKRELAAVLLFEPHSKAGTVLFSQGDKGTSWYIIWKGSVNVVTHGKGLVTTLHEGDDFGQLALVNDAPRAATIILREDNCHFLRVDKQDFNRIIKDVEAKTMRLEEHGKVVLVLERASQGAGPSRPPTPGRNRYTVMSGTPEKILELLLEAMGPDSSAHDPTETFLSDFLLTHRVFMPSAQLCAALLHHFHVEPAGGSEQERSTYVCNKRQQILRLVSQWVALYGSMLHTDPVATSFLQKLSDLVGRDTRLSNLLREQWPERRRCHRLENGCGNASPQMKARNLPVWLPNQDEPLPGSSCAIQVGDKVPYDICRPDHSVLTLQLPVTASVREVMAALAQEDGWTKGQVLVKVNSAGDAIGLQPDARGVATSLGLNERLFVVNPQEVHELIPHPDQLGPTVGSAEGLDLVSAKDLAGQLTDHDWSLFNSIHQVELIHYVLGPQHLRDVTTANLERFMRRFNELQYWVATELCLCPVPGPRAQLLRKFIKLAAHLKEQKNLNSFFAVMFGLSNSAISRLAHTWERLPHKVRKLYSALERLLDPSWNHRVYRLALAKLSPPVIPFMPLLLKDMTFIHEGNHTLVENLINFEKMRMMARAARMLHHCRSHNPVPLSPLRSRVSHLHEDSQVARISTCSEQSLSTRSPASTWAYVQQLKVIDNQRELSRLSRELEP
Kind of experiment: Rap1-GTP in HEK293 cells transfected with Epac1. The class given is cell-based. Details: expressed in transfected cells; host or cells: HEK293. Conditions: 10 min; for inhibition of Epac1-induced Rap1 activation: 20 μM, 30 min preincubation, 8-CPT-AM 10 μM. On the procedure: FIGS. 9-13. Amounts of Rap1-GTP (n=5 in each group, mean±S.E.M) were determined in HEK293 cells transfected with Epac1 (FIGS. 9-11), Epac2A (FIG. 12) or Epac2B (FIG. 13). Cells were preincubated or not with AM-001 (FIGS. 9, 12, and 13), AM-002 (FIG. 10) or AM-003 (FIG. 11) (20 μM, 30 min) and were then treated or not with 8-CPT-AM (10 μM for Epac1 activation and 20 μM for Epac2A activation) or S-220 (50 μM for Epac2B activation) for 10 min. ESI-05 was used as positive control of Epac2A inhibition. Representative immunoblots are shown. […], *[…], ***p<0.001, ****p<0.0001, versus indicated values, one way ANOVA, Bonferroni comparison test.
Human Embryonic Kidney cells line (HEK293): HEK293 cells were maintained is in minimal essential medium with FBS (10%) and penicillin-streptomycin (1%). All media, sera, and antibiotics used in cell culture were purchased from Invitrogen.
The human Epac1/Epac2 expression vector was a gift from Dr J. L. Bos. Cells were transfected using Lipofectamine 2000 (Invitrogen) according to the manufacturer's instructions. HEK293 cells were maintained in MEM with FBS (Foetal Bovine Serum; 10%) and penicillin-streptomycin (1%). All media, sera and antibiotics used in cell culture were purchased from Invitrogen (Cergy Pontoise, France). Transient transfection experiments were performed with Lipofectamine 2000 (Invitrogen Life Technologies) in the presence of various amounts of plasmid constructs according to the manufacturer's instructions.
This cell line is commonly used for the evaluation of Epac pharmacological modulators on the cellular signaling of ectopically expressed Epac1 and Epac2 isoforms. […] Next, the inventors investigated the effect of 8-CPT-AM on the two Epac2 splice variants, Epac2A and Epac2B (FIGS. 12-13).

A further experiment addresses T3, Epac2 (Homo sapiens, UniProt Q8WZA2).
T3 sequence (Q8WZA2 1-867 isoform Q8WZA2-3): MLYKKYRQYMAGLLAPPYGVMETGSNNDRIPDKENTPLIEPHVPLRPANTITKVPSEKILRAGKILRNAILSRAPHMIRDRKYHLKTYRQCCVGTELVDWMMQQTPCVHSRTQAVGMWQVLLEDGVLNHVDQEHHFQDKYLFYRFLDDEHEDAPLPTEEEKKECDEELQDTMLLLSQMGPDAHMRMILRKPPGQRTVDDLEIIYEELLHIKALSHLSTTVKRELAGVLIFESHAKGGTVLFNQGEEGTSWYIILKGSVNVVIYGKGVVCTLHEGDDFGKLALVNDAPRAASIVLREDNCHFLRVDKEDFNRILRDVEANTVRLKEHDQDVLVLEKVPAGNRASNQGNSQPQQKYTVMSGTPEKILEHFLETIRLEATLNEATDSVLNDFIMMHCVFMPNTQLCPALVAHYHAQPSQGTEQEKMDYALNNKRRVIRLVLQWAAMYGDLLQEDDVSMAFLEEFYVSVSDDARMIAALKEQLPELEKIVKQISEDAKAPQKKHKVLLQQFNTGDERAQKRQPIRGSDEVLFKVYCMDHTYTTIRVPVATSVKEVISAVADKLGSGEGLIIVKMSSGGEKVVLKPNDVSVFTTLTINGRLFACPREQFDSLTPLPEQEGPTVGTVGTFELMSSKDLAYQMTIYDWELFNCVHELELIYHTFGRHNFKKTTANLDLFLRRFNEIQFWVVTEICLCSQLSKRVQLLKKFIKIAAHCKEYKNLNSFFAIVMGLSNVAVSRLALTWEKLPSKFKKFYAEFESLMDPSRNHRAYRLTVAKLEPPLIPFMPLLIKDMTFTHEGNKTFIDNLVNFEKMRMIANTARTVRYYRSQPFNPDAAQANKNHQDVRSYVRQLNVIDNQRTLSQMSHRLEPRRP
Description: Epac GEF activity assay (b-GDP dissociation from recombinant Rap1), Epac2. The class given is biochemical. From the text: (§1) FIGS. 4-8. […] Variations of relative fluorescence units (RFU) were studied as a function of time and fitted to single exponentials.

Experiment [2] concerns the target T4, Epac1 (Homo sapiens, UniProt O95398).
T4 sequence (O95398 191-923 limits assumed): T1 sequence (O95398 191-923 T823A/F824A limits assumed) with A633T, A634F
Description: biochemical.
Description: as §1

Positions count from the first letter of the chain named.

Take `O=c1c2sc3nc(-c4cccs4)cc(-c4ccccc4)c3c2ncn1-c1ccccc1` [AM-002, reference compound]: at Epac1-BRET sensor CAMYEL, the “inhibitory activity on Epac1 activation, structure-activity comments” value (“inhibitory activity on Epac1 activation” below) is recorded as “no significant inhibitory activity” and the remaining activity at 20 µM stood at 93.6%. Further, at Epac1 [1], the “inhibition of Epac1-induced Rap1 activation” value was “inactive”.
For the compound `Nc1ncnc2c1ncn2[C@@H]1O[C@@H]2COP(=O)(O)O[C@H]2[C@H]1O` [cAMP, cyclic AMP, reference compound], on Epac2, the EC50 worked out at 2.8 ± 1.1 µM.
Take `NC(=O)c1sc2nc(-c3cccs3)cc(-c3ccc(F)cc3)c2c1N` [AM-006]: on Epac1-BRET sensor CAMYEL, the “inhibitory activity on Epac1 activation” value is reported as “decreased but not abolished” and the remaining activity at 20 µM was 74%.
For the compound `CC(C)NC(=O)c1sc2nc(-c3cccs3)cc(-c3ccc(F)cc3)c2c1N` [AM-003, reference compound], on Epac1-BRET sensor CAMYEL, the “inhibitory activity on Epac1 activation” value is given as “abolished the inhibitory effect” and the remaining activity at 20 µM amounted to 100%. Also, the “inhibition of Epac1-induced Rap1 activation” value against Epac1 [1] is “inactive”.
In the case of `Nc1c(C(=O)Nc2ccc(F)cc2)sc2nc3c(c(-c4ccccc4)c12)CCCC3` [AM-007], the remaining activity at 20 µM on Epac1-BRET sensor CAMYEL came out at 80.5%.
Turning to `Cc1cc(-c2ccccc2)c2c(N)c(C(=O)Nc3ccccc3)sc2n1` [AM-008], the remaining activity at 20 µM on Epac1-BRET sensor CAMYEL amounted to 82.2%.
Regarding `Nc1c(C(=O)Nc2ccccc2)sc2nc(-c3cccs3)cc(-c3ccccc3)c12` [AM-004], on Epac1-BRET sensor CAMYEL, the “inhibitory activity on Epac1 activation” value was “no significant effect on the inhibitory potency” and the remaining activity at 20 µM is 47%.
For `CO[C@@H]1[C@@H]2OP(=O)(OCOC(C)=O)OC[C@H]2O[C@H]1n1c(Sc2ccc(Cl)cc2)nc2c(N)ncnc21` (stereo partly drawn) [8-CPT-AM, 8-(4-chlorophenylthio)-2′-O-methyladenosine-3′,5′-cyclic monophosphate, acetoxymethyl ester], the “activation of Rap1 by agonist” value at Epac1 [1] (cells overexpressing Epac1, 10 μM) was “robust activation of Rap1”.
Turning to `COC1C2OP(O)(=S)OCC2OC1n1c(Sc2ccc(Cl)cc2)nc2c(N)ncnc21` (stereo not drawn) [Sp-8-CPT, 8-(4-Chlorophenylthio)-2′-O-methyladenosine-3′,5′-cyclic monophosphorothioate, Sp-isomer], at Epac1 [2], the EC50 amounted to 7.5 ± 1.1 µM and the “Vmax of Sp-8-CPT-activated Epac1 relative to cAMP-activated Epac1” value was found to be 2.5 fold. For the same compound, the “apparent affinity of Epac1, Sp-8-CPT relative to cAMP” value at Epac1 [2] (higher for Sp-8-CPT than for cAMP) is given as 1.7 times. Further, the EC50 on Epac2 was determined as 5.6 ± 1.1 µM.
As for `Nc1c(C(=O)Nc2ccccc2)sc2nc(-c3cccs3)cc(-c3ccc(F)cc3)c12` [AM-005], at Epac1-BRET sensor CAMYEL, the “inhibitory activity on Epac1 activation” value was “no significant effect on the inhibitory potency” and the remaining activity at 20 µM is 46.9%.
The corresponding values for `Nc1c(C(=O)Nc2ccc(F)cc2)sc2nc(-c3cccs3)ccc12` [AM-009] are “decreased but not abolished” and 82.4%.
The corresponding values for `Cc1cc(C)c2c(N)c(C(=O)Nc3ccc(F)cc3)sc2n1` [AM-010, reference compound] are “low activity” and 101%.

What is called EC50 is the concentration giving half of the maximal effect.

The values above are taken from patent publication US20210230179A1, “THIENO[2,3-B]PYRIDINE DERIVATIVES AS EPAC INHIBITORS AND THEIR PHARMACEUTICAL USES” (INSTITUT NATIONAL DE LA SANTE ET DE LA RECHERCHE MEDICALE …, priority 2018, published 2021).
